From patent US9440963B2, “Compositions, formulations and methods for treating ocular diseases” (Aerpio Therapeutics Inc., priority 2013, dated 2016)
≈ marks a conversion by molar mass, not a printed value. Where “and” joins values, the source holds several entries; their conditions need not be identical. Equal entries are not always repeated.

Key:
[1] = Room temperature aqueous solubility with solubilizing agents (Example 36); assay type: physicochemical
Source text: The room temperature aqueous solubility (mg/mL) of the a compound (4-{(S)-2-[(S)-2-methoxycarbonylamino)-3-phenylpropanamido]-2-[2-(thiophen-2-yl)thiazol-4-yl]ethyl}phenylsulfamic acid) in water, HPβCD, Poloxamer 407, and sulfobutylether-β-cyclodextrin, is provided in TABLE XXVII. Solubility in saline for the test compound is reduced presumably due to the common ion effect.
The solubility (mg/mL) of the test compound in mixtures of HPβCD and PEG400 is illustrated in TABLE XXVIII.

[2] = test system: human subjects with visual acuity loss due to diabetic macular edema; test: Central foveal/retinal thickness by ocular coherence tomography in diabetic macular edema study (Example 35); assay type: in vivo
Method: At any time during the course of the study, investigators could administer additional therapy consisting of intravitreal injection of an anti-VEGF agent, for example, ranibizumab, bevacizumab and/or aflibercept, if considered by the investigator to be medically necessary. Retinal thickness as measured by ocular coherence tomography and best corrected visual acuity as measured by a standard vision test (ETDRS) were assessed at regular intervals during the 28 day active treatment phase and through the 2 month post-treatment observation phase, (Screening, Day 1 [baseline], Day 7, Day 14, Day 21, Day 28, Day 42, Day 56 and Day 84). The main efficacy outcomes for the study were change in CRT and visual acuity over time with treatment. […] The mean change in Central Foveal Thickness was −289 μm, approximately double the reduction seen after ranibizumab injection in the study in FIG. 1. FIG. 5 represents the results of a single patient. The eye having the greater Central Foveal Thickness was chosen as the Study Eye. […] At week 3 (21 days, indicated by arrow) the fellow eye was treated with 0.5 mg of ranibizumab by injection. At week 6 (42 days, indicated by arrow) the treated eye was treated with 0.5 mg of ranibizumab. […] As a result, there was a pronounced reduction in CFT in the study eye from day 21 to day 28 (approximately 250 µm). […] At week 6, the study eye was treated with an intravitreal injection of 0.5 mg of ranibizumab. […] Compared to the study depicted in FIG. 1 wherein the average change in CFT at one month after ranibizumab injection was approximately […], the combination disclosed method provided substantially greater reductions at 2-4 weeks following ranibizumab injection. FIG. 6 represents the results of a single patient. The eye having the greater Central Foveal Thickness was chosen as the Study Eye. […] At week 4 (28 days, indicated by arrow) the fellow eye was rescued with 2 mg of aflibercept. […] At week 6 (42 days, indicated by arrow) the study eye was rescued with 2 mg of aflibercept. […] Unlike the results depicted for the ranibizumab protocol, there was no evidence of systemically delivered aflibercept to the Fellow Eye.

Row | Compound | solubility in saline ([1]; room temperature, compared with water) | Central Foveal Reduction, single patient eye ([2]; 5 mg subcutaneously twice daily for 28 days, subsequently ranibizumab (0.3 or 0.5 mg) or aflibercept (2 mg) intravitreal, 14-28 days post ranibizumab or aflibercept, 7 eyes) | fall of Central Foveal Thickness of the fellow eye ([2]; single patient (FIG. 5), 5 mg s.c. twice daily from day one, fellow eye 0.5 mg ranibizumab at week 3, by week 4 (28 days)) [μm] | overall reduction in CFT of the study eye ([2]; single patient (FIG. 5), by week 8, after 0.5 mg ranibizumab at week 6) | reduction in CFT in the study eye ([2]; single patient (FIG. 5), from day 21 to day 28) | reduction of CFT in the non-treated eye from onset of the study ([2]; single patient (FIG. 6)) [μm] | reduction of CFT in the study eye from onset of the study ([2]; single patient (FIG. 6)) | CFT reduction of the Fellow eye after rescue ([2]; single patient (FIG. 6), 5 mg s.c. twice daily from day one, fellow eye rescued with 2 mg aflibercept at week 4) | CFT reduction of the Study eye after rescue ([2]; single patient (FIG. 6), study eye rescued with 2 mg aflibercept at week 6) | Solubility ([1]; aqueous with cosolvent or surfactant or cyclodextrin) [mg/mL] | Solubility ([1]; water) [mg/mL]
1 | COC(=O)N[C@@H](Cc1ccccc1)C(=O)N[C@@H](Cc1ccc(NS(=O)(=O)O)cc1)c1csc(-c2cccs2)n1 | reduced | 50-100 μm and 150-200 μm and 200-250 μm and 300-350 μm and 350-400 μm and 450-500 μm | 350 | approximately 500 μm | approximately 250 µm | ~280 | approximately 300 μm | approximately 400 μm | approximately 300 μm | – | –
2 | COC(=O)N[C@@H](Cc1ccccc1)C(=O)N[C@@H](Cc1ccc(NS(=O)(=O)O)cc1)c1nc(-c2cccs2)cs1 | – | – | – | – | – | – | – | – | – | 42 (≈ 71.6 mM) | 38 (≈ 64.8 mM)
